Laboratory results published in US6528272B2 (priority 1997, dated 2003).

Each substance was assayed against SEB (Staphylococcus aureus, UniProt P01552).
Type: binding

Chain of SEB (P01552 28-266 limits assumed): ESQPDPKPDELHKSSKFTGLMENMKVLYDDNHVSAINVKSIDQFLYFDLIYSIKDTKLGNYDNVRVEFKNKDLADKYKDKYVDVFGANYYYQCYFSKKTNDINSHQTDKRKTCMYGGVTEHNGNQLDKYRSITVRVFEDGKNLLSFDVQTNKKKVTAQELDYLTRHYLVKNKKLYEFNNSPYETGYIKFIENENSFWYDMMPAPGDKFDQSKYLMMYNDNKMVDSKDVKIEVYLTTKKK

Substance	binding of SEB to glycosphingolipid
lactosylceramide [LacCer]	did not significantly bind
galactosylceramide [GalCer]	did not significantly bind
glucosylceramide [GlcCer]	did not significantly bind
digalactosylceramide [diGalCer]	strong binding
